Common to all, as to test: G' assay (10 uM PL peptide), results of TABLE 7 and TABLE 12
What all share (assay type): binding

Assay [1] addresses T1, PDZ protein (GST-PDZ fusion) (Homo sapiens, UniProt Q9P202).
T1 construct: made in house; host or cells: E. coli (DH5alpha, BL21 or JM109)
T1 sequence (Q9P202 1-907): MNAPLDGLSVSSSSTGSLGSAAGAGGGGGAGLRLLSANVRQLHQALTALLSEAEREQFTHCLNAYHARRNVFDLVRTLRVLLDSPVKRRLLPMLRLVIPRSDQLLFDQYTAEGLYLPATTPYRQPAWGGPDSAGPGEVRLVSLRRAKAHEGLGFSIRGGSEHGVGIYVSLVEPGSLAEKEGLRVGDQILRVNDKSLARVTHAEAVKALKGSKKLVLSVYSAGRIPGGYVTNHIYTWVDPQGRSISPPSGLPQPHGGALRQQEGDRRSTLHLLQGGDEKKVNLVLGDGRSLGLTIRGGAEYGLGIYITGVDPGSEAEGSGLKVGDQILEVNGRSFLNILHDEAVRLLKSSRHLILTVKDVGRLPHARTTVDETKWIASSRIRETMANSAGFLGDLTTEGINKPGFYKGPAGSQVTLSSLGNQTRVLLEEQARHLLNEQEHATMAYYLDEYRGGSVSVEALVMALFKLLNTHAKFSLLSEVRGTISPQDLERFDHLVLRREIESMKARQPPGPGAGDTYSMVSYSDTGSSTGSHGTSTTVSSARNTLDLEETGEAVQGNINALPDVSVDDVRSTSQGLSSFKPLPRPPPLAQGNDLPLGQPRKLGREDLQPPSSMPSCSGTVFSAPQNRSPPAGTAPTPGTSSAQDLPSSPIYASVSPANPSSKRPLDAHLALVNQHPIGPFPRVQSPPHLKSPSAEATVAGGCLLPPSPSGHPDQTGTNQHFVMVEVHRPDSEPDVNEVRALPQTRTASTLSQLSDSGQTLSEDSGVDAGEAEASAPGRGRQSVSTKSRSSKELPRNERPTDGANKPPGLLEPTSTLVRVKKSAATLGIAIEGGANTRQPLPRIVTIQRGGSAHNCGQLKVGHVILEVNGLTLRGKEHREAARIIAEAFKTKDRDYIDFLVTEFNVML
Conditions: PDZ KIAA1526, PDZ Domain 1. The method, boiled down: (§1)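 Biotinylated PL peptides at 10 uM (vs 20 uM in G^0 assay) bound to GST-PDZ fusions; PDZ protein at 5 ug/ml unless another concentration listed. Bound peptide read as A450 nm, classified 0–5 (0 = A450 0; 5 = A450 >4 repeated).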

In assay [2] the target is T2, PDZ protein (GST-PDZ fusion) (Homo sapiens, UniProt Q92796).
T2 construct: made in house; host or cells: E. coli (DH5alpha, BL21 or JM109)
T2 sequence (Q92796 1-817): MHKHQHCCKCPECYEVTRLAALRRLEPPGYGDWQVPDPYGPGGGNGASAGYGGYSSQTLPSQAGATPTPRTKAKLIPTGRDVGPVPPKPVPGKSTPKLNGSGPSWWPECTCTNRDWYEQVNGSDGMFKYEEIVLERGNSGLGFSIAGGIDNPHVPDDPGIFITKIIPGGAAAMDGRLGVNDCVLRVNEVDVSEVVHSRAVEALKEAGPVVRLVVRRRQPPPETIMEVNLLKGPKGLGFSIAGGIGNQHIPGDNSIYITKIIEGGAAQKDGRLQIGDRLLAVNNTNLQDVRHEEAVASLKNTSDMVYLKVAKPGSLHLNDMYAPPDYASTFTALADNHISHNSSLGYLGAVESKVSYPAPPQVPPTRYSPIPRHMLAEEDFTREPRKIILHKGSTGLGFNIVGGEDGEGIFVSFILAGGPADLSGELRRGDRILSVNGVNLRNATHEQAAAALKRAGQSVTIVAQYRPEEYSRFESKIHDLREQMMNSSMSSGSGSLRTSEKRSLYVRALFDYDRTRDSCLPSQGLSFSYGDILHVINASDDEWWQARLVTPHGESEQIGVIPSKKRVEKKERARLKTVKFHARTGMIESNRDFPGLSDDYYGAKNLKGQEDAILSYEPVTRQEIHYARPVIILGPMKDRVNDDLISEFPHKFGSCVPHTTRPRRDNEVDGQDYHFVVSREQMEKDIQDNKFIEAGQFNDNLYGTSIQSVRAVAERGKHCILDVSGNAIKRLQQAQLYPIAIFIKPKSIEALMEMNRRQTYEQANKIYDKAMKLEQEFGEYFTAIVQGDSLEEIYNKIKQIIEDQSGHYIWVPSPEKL
As to conditions: PDZ NeDLG. The method, boiled down: as §1

For assay [3], the target named is T3, PDZ protein (GST-PDZ fusion) (Homo sapiens, UniProt Q13796).
T3 construct: made in house; host or cells: E. coli (DH5alpha, BL21 or JM109)
T3 sequence (Q13796 whole entry, the tested form may be a part): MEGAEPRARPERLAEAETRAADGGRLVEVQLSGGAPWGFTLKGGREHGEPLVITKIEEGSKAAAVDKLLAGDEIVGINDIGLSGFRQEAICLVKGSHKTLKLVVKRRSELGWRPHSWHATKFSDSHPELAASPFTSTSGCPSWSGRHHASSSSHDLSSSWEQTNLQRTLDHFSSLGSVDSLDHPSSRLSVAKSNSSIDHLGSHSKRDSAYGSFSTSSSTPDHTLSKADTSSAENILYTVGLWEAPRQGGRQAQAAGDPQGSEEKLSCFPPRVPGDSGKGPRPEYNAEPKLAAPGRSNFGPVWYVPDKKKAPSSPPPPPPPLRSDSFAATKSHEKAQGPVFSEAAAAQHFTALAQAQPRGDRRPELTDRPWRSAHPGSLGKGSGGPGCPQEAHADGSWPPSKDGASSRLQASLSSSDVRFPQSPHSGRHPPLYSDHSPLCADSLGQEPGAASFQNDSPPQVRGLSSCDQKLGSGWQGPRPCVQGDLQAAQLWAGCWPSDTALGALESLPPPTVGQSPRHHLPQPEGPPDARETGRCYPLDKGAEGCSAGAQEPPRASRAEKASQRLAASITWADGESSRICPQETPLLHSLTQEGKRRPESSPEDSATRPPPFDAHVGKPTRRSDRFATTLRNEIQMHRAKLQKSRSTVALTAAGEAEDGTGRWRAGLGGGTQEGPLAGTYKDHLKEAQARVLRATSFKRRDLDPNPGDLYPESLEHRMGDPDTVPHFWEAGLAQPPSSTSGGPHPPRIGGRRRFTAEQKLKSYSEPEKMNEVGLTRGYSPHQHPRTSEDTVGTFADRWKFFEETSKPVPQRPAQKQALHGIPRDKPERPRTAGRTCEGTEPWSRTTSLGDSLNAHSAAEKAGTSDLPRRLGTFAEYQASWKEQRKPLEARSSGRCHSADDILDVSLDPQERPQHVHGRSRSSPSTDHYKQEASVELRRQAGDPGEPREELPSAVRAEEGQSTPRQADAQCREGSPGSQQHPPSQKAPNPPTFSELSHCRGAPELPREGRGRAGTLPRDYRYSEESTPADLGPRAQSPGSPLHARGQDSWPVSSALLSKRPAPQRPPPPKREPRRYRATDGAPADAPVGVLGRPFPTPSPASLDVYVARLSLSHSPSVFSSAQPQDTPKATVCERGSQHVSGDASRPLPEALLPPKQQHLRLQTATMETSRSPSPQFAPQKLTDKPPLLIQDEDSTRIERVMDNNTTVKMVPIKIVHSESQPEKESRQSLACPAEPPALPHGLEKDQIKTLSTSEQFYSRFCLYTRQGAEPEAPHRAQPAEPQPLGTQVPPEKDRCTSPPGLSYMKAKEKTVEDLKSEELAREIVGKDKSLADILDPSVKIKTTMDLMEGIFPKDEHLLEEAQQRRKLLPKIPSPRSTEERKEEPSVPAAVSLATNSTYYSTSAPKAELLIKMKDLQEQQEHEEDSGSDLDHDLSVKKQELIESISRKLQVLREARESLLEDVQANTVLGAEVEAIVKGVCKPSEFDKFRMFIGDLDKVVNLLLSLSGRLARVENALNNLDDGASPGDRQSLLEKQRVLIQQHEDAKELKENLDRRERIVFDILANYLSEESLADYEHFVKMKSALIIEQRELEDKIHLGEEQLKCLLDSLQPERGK
As to conditions: PDZ hAPXL, PDZ Domain 1. The method, boiled down:
as §1

In assay [4] the target is T4, PDZ protein (GST-PDZ fusion) (Homo sapiens, UniProt Q14160).
T4 construct: made in house; host or cells: E. coli (DH5alpha, BL21 or JM109)
T4 sequence (Q14160 whole entry, the tested form may be a part): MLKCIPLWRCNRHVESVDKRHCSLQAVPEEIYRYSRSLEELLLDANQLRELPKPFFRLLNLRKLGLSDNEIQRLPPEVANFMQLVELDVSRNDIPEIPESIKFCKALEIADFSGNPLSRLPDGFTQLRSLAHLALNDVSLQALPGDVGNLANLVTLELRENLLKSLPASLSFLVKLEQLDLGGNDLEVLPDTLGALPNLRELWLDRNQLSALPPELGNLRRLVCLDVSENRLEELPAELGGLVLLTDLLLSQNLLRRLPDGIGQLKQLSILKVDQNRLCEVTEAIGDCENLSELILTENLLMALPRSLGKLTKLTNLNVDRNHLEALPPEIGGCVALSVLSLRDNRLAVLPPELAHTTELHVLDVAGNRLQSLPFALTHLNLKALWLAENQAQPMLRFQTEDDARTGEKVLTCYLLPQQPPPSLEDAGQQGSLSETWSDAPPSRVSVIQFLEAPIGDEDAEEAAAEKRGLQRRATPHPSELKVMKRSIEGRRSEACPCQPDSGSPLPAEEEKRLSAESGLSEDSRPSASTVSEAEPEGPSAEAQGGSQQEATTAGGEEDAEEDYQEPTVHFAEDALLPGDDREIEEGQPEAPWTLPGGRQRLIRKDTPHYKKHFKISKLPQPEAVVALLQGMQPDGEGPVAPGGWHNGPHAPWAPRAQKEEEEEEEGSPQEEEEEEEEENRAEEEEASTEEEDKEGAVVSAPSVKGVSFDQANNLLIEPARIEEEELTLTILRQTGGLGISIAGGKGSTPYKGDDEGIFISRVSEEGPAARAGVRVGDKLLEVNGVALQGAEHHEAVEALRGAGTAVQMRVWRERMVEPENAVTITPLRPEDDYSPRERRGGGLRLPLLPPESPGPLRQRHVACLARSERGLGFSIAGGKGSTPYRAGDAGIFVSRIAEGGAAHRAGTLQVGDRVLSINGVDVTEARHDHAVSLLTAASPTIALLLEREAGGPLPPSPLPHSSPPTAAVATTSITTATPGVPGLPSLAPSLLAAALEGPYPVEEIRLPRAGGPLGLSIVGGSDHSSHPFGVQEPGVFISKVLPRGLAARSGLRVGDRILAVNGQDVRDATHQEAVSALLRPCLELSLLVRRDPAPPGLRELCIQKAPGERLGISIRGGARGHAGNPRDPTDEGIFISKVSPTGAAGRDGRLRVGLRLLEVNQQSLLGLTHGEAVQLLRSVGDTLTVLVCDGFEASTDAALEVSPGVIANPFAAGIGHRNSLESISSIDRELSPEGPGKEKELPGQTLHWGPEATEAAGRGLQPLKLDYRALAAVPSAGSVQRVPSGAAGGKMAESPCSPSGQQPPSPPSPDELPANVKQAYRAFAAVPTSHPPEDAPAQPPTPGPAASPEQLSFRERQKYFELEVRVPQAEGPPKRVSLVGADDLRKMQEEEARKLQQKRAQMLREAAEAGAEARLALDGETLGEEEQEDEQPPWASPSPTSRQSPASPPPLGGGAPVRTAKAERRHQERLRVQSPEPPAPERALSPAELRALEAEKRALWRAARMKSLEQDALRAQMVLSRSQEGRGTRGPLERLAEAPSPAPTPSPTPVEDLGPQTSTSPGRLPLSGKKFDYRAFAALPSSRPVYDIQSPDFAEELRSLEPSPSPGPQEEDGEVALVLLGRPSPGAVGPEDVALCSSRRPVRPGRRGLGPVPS
The method, boiled down:
as §1

Assay [5] has as its target T5, PDZ protein (GST-PDZ fusion) (Homo sapiens, UniProt P78352).
T5 construct: made in house; host or cells: E. coli (DH5alpha, BL21 or JM109)
The procedure, abridged:
as §1

Peptide text beside a SMILES is read from it. * marks the point of attachment. Biotin = O=C1N[C@H]2[C@H](CS[C@H]2CCCCC(=O)*)N1

T5 sequence (P78352 whole entry, the tested form may be a part): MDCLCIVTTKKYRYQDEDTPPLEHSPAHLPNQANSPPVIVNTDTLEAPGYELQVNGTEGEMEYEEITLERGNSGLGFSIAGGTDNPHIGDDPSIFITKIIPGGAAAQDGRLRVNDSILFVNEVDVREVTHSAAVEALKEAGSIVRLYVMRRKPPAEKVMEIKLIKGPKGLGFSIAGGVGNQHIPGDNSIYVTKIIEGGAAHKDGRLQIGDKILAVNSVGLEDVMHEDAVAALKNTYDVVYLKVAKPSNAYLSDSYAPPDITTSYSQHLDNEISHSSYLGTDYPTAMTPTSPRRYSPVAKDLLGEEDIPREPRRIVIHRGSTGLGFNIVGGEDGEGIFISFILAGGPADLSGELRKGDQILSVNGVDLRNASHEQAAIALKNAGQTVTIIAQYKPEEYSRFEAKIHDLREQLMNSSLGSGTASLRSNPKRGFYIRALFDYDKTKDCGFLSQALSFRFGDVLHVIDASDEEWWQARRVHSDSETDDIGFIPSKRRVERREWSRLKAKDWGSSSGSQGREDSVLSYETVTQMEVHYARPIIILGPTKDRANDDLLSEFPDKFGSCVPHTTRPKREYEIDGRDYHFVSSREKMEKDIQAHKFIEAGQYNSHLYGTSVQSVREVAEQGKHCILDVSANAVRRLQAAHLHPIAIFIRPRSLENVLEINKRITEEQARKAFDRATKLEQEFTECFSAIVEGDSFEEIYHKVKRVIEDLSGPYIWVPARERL

As for TQGFPGPATWRRISSLESEV, the Classification in assay [1] is reported as 3 (A450 nm 2-3); in assay [2] (PDZ Domain 1), 2 (A450 nm 1-2); in assay [2] (PDZ Domain 1, 2), 5 (A450 nm of 4 more than 2× repeated); in assay [2] (PDZ Domain 2) it was 5 (A450 nm of 4 more than 2× repeated); in assay [2] (PDZ Domain 3), 1 (A450 nm 0-1); in assay [3] it was 1 (A450 nm 0-1). Further, the Classification is on record as 5 (A450 nm of 4 more than 2× repeated) in assay [4] (PDZ KIAA0147, PDZ Domain 1); 1 (A450 nm 0-1) in assay [4] (PDZ KIAA0147, PDZ Domain 2); 1 (A450 nm 0-1) in assay [4] (PDZ KIAA0147, PDZ Domain 3); 5 (A450 nm of 4 more than 2× repeated) in assay [5] (PDZ PSD95, PDZ Domain 1); 5 (A450 nm of 4 more than 2× repeated) in assay [5] (PDZ PSD95, PDZ Domain 1, 2, 3); 2 (A450 nm 1-2) in assay [5] (PDZ PSD95, PDZ Domain 3).
Regarding `CC(C)C[C@H](NC(=O)[C@H](C)NC(=O)[C@@H](NC(=O)[C@H](CCC(=O)O)NC(=O)[C@H](CCCNC(=N)N)NC(=O)[C@H](CCCNC(=N)N)NC(=O)CNC(=O)[C@H](CCC(N)=O)NC(=O)[C@H](CC(C)C)NC(=O)[C@H](CCCNC(=N)N)NC(=O)CNC(=O)CNC(=O)[C@H](CCCNC(=N)N)NC(=O)[C@H](C)NC(=O)[C@H](CO)NC(=O)[C@H](CCCNC(=N)N)NC(=O)CNC(=O)CNC(=O)[C@H](C)NC(=O)[C@H](C)NC(=O)CCCC[C@@H]1SC[C@@H]2NC(=O)N[C@@H]21)[C@@H](C)O)C(=O)O` [HPV E6 33 (modified)] (Biotin-AAGGRSARGGRLQGRRETAL-OH; C-terminus assumed), the Classification in assay [1] was 1 (A450 nm 0-1); in assay [2] (PDZ Domain 1), 1 (A450 nm 0-1); in assay [2] (PDZ Domain 1, 2), 5 (A450 nm of 4 more than 2× repeated); in assay [2] (PDZ Domain 2), 2 (A450 nm 1-2); in assay [2] (PDZ Domain 3), 1 (A450 nm 0-1); in assay [3], 3 (A450 nm 2-3). For the same compound, the Classification in assay [4] (PDZ KIAA0147, PDZ Domain 1) is reported as 5 (A450 nm of 4 more than 2× repeated); in assay [4] (PDZ KIAA0147, PDZ Domain 3), 2 (A450 nm 1-2); in assay [5] (PDZ PSD95, PDZ Domain 1), 2 (A450 nm 1-2); in assay [5] (PDZ PSD95, PDZ Domain 1, 2, 3) it was 5 (A450 nm of 4 more than 2× repeated); in assay [5] (PDZ PSD95, PDZ Domain 3), 5 (A450 nm of 4 more than 2× repeated).
Turning to `CC(C)C[C@H](NC(=O)[C@H](C)NC(=O)[C@H](CO)NC(=O)CNC(=O)[C@@H](NC(=O)CCCC[C@@H]1SC[C@@H]2NC(=O)N[C@@H]21)[C@@H](C)O)C(=O)N[C@@H](CCC(N)=O)C(=O)N[C@@H](C)C(=O)N[C@@H](Cc1c[nH]c2ccccc12)C(=O)N[C@@H](CCCNC(=N)N)C(=O)N[C@@H](Cc1c[nH]cn1)C(=O)N[C@H](C(=O)N[C@@H](CO)C(=O)N[C@@H](CCCNC(=N)N)C(=O)N[C@@H](CCC(N)=O)C(=O)N[C@@H](C)C(=O)N[C@H](C(=O)N[C@@H](CCC(=O)O)C(=O)N[C@@H](CO)C(=O)N[C@H](C(=O)N[C@H](C(=O)O)C(C)C)[C@@H](C)O)[C@@H](C)O)[C@@H](C)O` [HPV E6 #66 (modified)] (Biotin-TGSALQAWRHTSRQATESTV-OH; C-terminus assumed), the Classification in assay [1] is reported as 1 (A450 nm 0-1); in assay [2] (PDZ Domain 1) it was 1 (A450 nm 0-1); in assay [2] (PDZ Domain 1, 2) it was 5 (A450 nm of 4 more than 2× repeated); in assay [2] (PDZ Domain 2) it was 4 (A450 nm 3-4); in assay [3], 1 (A450 nm 0-1); in assay [4] (PDZ KIAA0147, PDZ Domain 1), 2 (A450 nm 1-2). Besides, the Classification in assay [5] (PDZ PSD95, PDZ Domain 1) was 4 (A450 nm 3-4); in assay [5] (PDZ PSD95, PDZ Domain 1, 2, 3), 5 (A450 nm of 4 more than 2× repeated); in assay [5] (PDZ PSD95, PDZ Domain 3), 1 (A450 nm 0-1).
With `CC(C)C[C@H](NC(=O)[C@H](C)NC(=O)[C@@H](NC(=O)[C@@H](NC(=O)[C@H](Cc1c[nH]cn1)NC(=O)[C@H](CC(C)C)NC(=O)CNC(=O)[C@H](CCC(N)=O)NC(=O)CNC(=O)CNC(=O)[C@H](C)NC(=O)[C@H](C)NC(=O)[C@H](CCCNC(=N)N)NC(=O)[C@H](C)NC(=O)[C@H](CO)NC(=O)[C@H](CC(=O)O)NC(=O)[C@H](CC(=O)O)NC(=O)[C@H](Cc1c[nH]c2ccccc12)NC(=O)[C@H](C)NC(=O)CCCC[C@@H]1SC[C@@H]2NC(=O)N[C@@H]21)C(C)C)[C@@H](C)O)C(=O)O` [LPAP] (Biotin-AWDDSARAAGGQGLHVTAL-OH; C-terminus assumed), the Classification in assay [1] is 1 (A450 nm 0-1); in assay [3], 1 (A450 nm 0-1); in assay [4] (PDZ KIAA0147, PDZ Domain 1), 3 (A450 nm 2-3).
With `CC[C@H](C)[C@H](NC(=O)CNC(=O)[C@H](CO)NC(=O)[C@H](Cc1ccccc1)NC(=O)[C@@H](NC(=O)[C@H](CS)NC(=O)CNC(=O)CNC(=O)[C@H](C)NC(=O)[C@@H]1CCCN1C(=O)[C@@H](NC(=O)[C@@H]1CCCN1C(=O)CCCC[C@@H]1SC[C@@H]2NC(=O)N[C@@H]21)[C@@H](C)CC)[C@@H](C)O)C(=O)N[C@@H](Cc1ccccc1)C(=O)N1CCC[C@H]1C(=O)N[C@H](C(=O)N[C@@H](CC(C)C)C(=O)N[C@H](C(=O)N[C@@H](CO)C(=O)N1CCC[C@H]1C(=O)N[C@@H](CC(C)C)C(=O)O)[C@@H](C)O)[C@@H](C)O` [KIA 1481] (Biotin-PIPAGGCTFSGIFPTLTSPL-OH; C-terminus assumed), the Classification in assay [1] is recorded as 2 (A450 nm 1-2); in assay [3] it was 5 (A450 nm of 4 more than 2× repeated); in assay [4] (PDZ KIAA0147, PDZ Domain 1) it was 2 (A450 nm 1-2).

Source of the values: US20050282743A1, “Molecular interactions in cells” (Arbor Vita Corporation, priority 2001, published 2005).
